Measured values from ChEMBL document CHEMBL3351234, “Discovery of novel 2,4-diarylaminopyrimidine analogues (DAAPalogues) showing potent inhibitory activities against both wild-type and mutant ALK kinases” (J Med Chem, 2015).
Converted amounts (≈) assume the structure as drawn.

Tests used:
in vivo [1] = settings: rat, plasma, po, 2.5 mg/kg
in vivo [2] = settings: rat, po, 2.5 mg/kg
physchem [3] = settings: aqueous
physchem [4] = settings: aqueous; remark: listed apart in the source

CC(C)S(=O)(=O)c1ccccc1Nc1nc(Nc2cccc(NC(=O)CN)c2)ncc1Cl
AUC(0-inf) (in vivo [1]): 454 ng·h/mL | half-life (in vivo [2]): 30 min | solubility (physchem [3]): < 100 µg/mL | solubility (physchem [4]): 4000 µg/mL (≈ 8.42 mM)
